According to US12486246B2, “Replication protein A (RPA)-DNA interaction inhibitors” (THE TRUSTEES OF INDIANA UNIVERSITY, priority 2019, dated 2025):
Converted amounts (≈) assume the structure as drawn.

Key:
[1] = tested on: sonicated salmon sperm DNA; assay: Fluorescent intercalator displacement (FID) assay, SYBR-Green; format: binding; conditions: 25 mM MOPS pH 6.5
Method: The analysis of compound interactions with DNA was determined by inhibition of SYBR-Green intercalation into DNA as we have previously described. Briefly, reactions were performed in 25 mM MOPS (pH 6.5) containing sonicated salmon sperm DNA (8.29 ng/μL), SYBR-Green, and the indicated concentrations of RPA inhibitors. Reactions were conducted in black 96-well plates. Doxorubicin, a known noncovalent DNA binding chemotherapeutic, was used as a positive control. Fluorescence was measured using a BioTek® Synergy™ H1 hybrid multi-mode microplate reader with an excitation wavelength of 485 nm, emission wavelength of 528 nm, and a read height of 7 mm. Data were collected using BioTek® Gen5™ reader software. Reactions were incubated a maximum of 5 min before measurements were collected.
In order to probe the potential role of DNA intercalation as a mechanism for RPA inhibition, compounds 19, 23, 26, 27, 43 and 45 were analyzed using FID assay along with doxorubicin (Dox) as a positive control. […] In addition, direct binding of 9 derivatives to the target protein was assessed using a differential scan fluorimetry (DSF) assay. This assay assesses the melting profile of a protein at increasing temperatures via fluorescent dye binding. The direct interaction of a small molecule to the target protein can either increase or decrease the melting temperature (Tm) of the target depending on the specific protein and their interactions. […] Heparin sulfate, a known RPA interacting molecule often used in the purification of the protein was used as a control. […] (data not shown). […] (FIG. 1B).

H460 NSCLC cells [2] = assay: Cell survival, CCK-8 metabolic assay, single agent; format: cell-based
Method: Cell survival was determined by CCK-8 viability assay and/or clonogenic survival assay in 96 well plates or 24 well plates, respectively and combination index (CI) analysis of drug-drug interactions determined by Chou-Talalay analysis as we have previously described. • 1) CCK-8 metabolic assay: Cells were plated (2500 cells/well) in 96-well plate and allowed to grow for at least 18 hours in at 37° C. in the presence of 5% CO2 before treatment with inhibitor for 48 hours. CCK-8 solution (Dojindo) was added to 10% of the total media volume and after 1-4 hours of incubation absorbance at 450 nm was determined using BioTek® Synergy™ H1 hybrid multi-mode microplate reader • 2) Clonogenic survival assay: Cells were plated in a 24 well (20,000 cells/well) plate, incubated for at least 18 hours and then treated with inhibitor. […] Images of the stained colonies were captured with a Fuji LAS-3000 CCD system then counted using OpenCFU software. Viability is determined as a percent of vehicle controls and plotted versus drug concentration. • 3) Assessment of synergy via combination index (CI): In the combination index studies, cells (H460 or SKGT4) were treated with RPA inhibitor and Pt/etoposide/bleomycin/taxol/DDR inhibitor alone as well as the combination of both—the inhibitor and the DNA damaging chemotherapeutic agent/DDR inhibitor. […]

[3] = target: T1, RPA DBD-A/B construct (His6-RPA181-422 of RPA70) (Homo sapiens, UniProt P27694); assay: EMSA, binding of RPA DBD-A/B construct to DNA; conditions: mean ± SD, read-out: RPAA/B IC50
T1 construct: The DBD-A/B construct was expressed as a His6-RPA181-422 fusion protein; His6 (N); made in house; host or cells: E. coli BL21 (DE3)
T1 sequence (P27694 181-422): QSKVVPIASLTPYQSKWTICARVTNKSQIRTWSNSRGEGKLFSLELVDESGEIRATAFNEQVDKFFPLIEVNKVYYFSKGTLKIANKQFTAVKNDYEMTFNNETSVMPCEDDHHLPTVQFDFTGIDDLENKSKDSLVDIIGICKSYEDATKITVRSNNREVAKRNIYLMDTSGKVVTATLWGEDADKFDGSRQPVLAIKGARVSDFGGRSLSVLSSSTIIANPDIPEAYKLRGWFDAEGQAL
Method: (§1) Full length, heterotrimeric human RPA (fl-RPA) and DBD-A/B constructs were expressed and purified according to previously described protocol. The DBD-A/B construct was expressed as a His6-RPA181-422 fusion protein. E. coli BL21 (DE3) cells in log growth were induced for 3 h with 0.5 mM IPTG at 37° C. The cells were lysed via sonication in buffer containing 20 mM Tris pH 7.5, 500 mM NaCl, 10 mM b-mercaptoethanol, supplemented with 25 μg/mL lysozyme, 1 μg/mL leupeptin, 1 μg/mL pepstatin and 0.5 mM PMSF. The lysate was applied to a 20 mL phosphocellulose column equilibrated in the same buffer and the flow-through material collected, brought to 5 mM Imidazole and loaded onto a 2 ml Ni-NTA column. The column was washed and proteins eluted on with a gradient from 50 mM to 500 mM imidazole. Fractions were assessed by EMSA and SDS-PAGE and DBD-A/B containing fraction were pool, dialyzed against buffer containing 50 mM HEPES pH 7.0, 500 mM NaCl and 1 mM DTT and stored at −80° C.
(§2) EMSAs were carried out using previously described procedure with the following modification. EMSA reactions (20 μL) were performed with 50 nM fl-RPA and 2.5 nM 5′ [^32P]-labeled 34-base DNA in buffer containing 20 mM HEPES (pH 7.8), 1 mM DTT, 0.001% NP-40, 50 mM NaCl. Chemical compounds were suspended in DMSO and DMSO concentration in the reaction mixture was kept constant at 2% or below 5%. RPA was incubated with inhibitor or DMSO control in reaction buffer for 30 min before the addition of DNA. Reactions were incubated for 5 min at room temperature and products separated via 6% native polyacrylamide gel electrophoresis. The bound and unbound fractions were then quantified by phosphor-imager analysis using ImageQuant software (Molecular Dynamics, CA) and IC50 values calculated by non-linear regression using SigmPlot (Sysat). For EMSA reactions with RPA DBD-A/B, 150 nM DBD-A/B was used, and electrophoresis was performed at 4° C. All other conditions were identical to those described for the full-length RPA.
These domains are compact modular domains populated with hydrophobic and basic DNA binding amino acid residues and have great potential to influence binding of the compounds to the RPA70 subunit. RPA DBD-A/B construct was purified via Ni-affinity chromatography. The activity of compounds 23-27 was evaluated on purified DBD-A/B construct using EMSA.

H460 NSCLC cells [4] = assay: Cellular uptake measurement by LC/MS; format: in vitro ADME; conditions: 20 μM, 4 hours, 37° C.
Method: All cells were grown as monolayers at 37° C. with 5% CO2 in media containing 20% fetal bovine serum and 0.1% pen/strep. Cellular uptake was assessed in both H460 NSCLC and SKGT4 esophageal adenocarcinoma cells. Briefly, cells were plated in 35 mm dishes at 1×10^6 cells well and incubated overnight. Compounds were added to the medium at a concentration of 20 μM incubation continued for 4 hours. Media was removed and cells washed 3× with PBS. 1 mL of methanol was added per well and cells agitated overnight at 4° C. The methanol was collected, wells washed with an additional 1 ml of methanol and pooled. The compounds were dried under vacuum, suspended in methanol and quantified by LC/MS.
Cellular uptake of our compounds in H460 NSCLC cells was analyzed (FIG. 3B). Initially, compounds were first solubilized in 100% DMSO then diluted in aqueous buffer of media to achieve the desired concentrations, the final DMSO concentration was 1% or less in all experiments. Cells were treated with a fixed concentration (20 μM) for 4 hours at 37° C. The intracellular drug concentrations were determined following extraction with ice cold MeOH and analysis via LC and LC/MS. […] Similar uptake data was also obtained in the SKGT4 esophageal adenocarcinoma cell line.

[5] = target: T2, full length heterotrimeric human RPA (Homo sapiens, UniProt P27694); assay: Electrophoretic mobility shift assay (EMSA), binding of full length human RPA to ssDNA; conditions: full length human RPA binding to DNA, mean ± SD of minimum triplicate experiments
T2 construct: Full length, heterotrimeric human RPA (fl-RPA) and DBD-A/B constructs were expressed and purified; made in house
T2 sequence (P27694 whole entry): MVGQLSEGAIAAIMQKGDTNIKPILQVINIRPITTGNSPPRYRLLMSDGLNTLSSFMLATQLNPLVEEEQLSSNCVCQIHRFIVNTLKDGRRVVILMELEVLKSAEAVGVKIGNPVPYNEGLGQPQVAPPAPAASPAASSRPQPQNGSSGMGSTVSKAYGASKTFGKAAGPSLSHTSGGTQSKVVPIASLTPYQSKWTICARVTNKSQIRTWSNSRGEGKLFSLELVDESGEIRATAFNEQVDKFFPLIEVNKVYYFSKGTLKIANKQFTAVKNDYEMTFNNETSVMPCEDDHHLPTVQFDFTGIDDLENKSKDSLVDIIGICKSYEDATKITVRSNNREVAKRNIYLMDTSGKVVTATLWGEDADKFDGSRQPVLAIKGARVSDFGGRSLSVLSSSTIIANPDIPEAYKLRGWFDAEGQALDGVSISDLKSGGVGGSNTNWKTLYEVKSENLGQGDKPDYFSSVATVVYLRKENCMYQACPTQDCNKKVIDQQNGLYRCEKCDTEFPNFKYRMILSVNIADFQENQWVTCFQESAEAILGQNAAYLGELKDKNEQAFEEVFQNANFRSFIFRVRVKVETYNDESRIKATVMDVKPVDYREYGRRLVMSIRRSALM
T2 sequence (P15927 whole entry partner): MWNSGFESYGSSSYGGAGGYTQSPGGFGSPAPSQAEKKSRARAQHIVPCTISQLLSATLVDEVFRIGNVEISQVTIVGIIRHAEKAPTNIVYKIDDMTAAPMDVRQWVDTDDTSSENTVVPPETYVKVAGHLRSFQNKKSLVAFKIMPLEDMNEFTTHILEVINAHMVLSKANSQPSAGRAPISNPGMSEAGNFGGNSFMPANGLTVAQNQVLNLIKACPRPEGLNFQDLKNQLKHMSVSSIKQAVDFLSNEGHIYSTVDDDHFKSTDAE
T2 sequence (P35244 whole entry partner): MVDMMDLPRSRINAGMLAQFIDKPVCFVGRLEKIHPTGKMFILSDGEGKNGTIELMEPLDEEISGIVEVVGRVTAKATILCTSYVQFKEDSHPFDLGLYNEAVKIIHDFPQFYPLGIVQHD
Method: as §1, §2
Purified full length heterotrimeric human RPA protein was used to screen a series of analogs in an electrophoretic mobility shift assay (EMSA) measuring direct binding to a ss-DNA substrate. Quantification of the EMSA data and additional concentration dependent analysis to measure IC50 values of newly synthesized analogs provided potential insight into the structure-activity relationships (Table 1 and 2). […] Fluorine and trifluoromethyl substituents were included in pyridinyl compounds 28-29.

[6] = Aqueous solubility as a function of pH; format: physicochemical; conditions: thermodynamic from solid
Method: Aqueous solubility was determined by suspending compound in un-buffered water with stirring. Insoluble material was removed by sedimentation or filtration and soluble compound quantified by absorbance spectroscopy and LC/MS. pH dependence was determined by suspending compound in 10 mM citrate buffer at pH 4.0 or 10 mM phosphate […] as described above in the description.
The morpholine ring is commonly introduced into solvent exposed regions as a privileged solubilizing group to improve solubility or pharmacokinetic properties including metabolic stability of a prospective drug scaffold which is exemplified by many FDA approved drugs. Modifications on Ring A had less of an effect than the morpholino modifications at the alkyl carboxylic acid side chain. To determine the effect of pH on solubility, we prepared solution at 1 mM in citrate buffer at pH 4, phosphate buffer at pH 7 and carbonate buffer at pH 9.5.

H460 NSCLC cells [7] = assay: Combination index (Chou-Talalay), CCK-8 assay; format: cell-based; conditions: CI <1.0 = synergy
Method: Cell survival was determined by CCK-8 viability assay and/or clonogenic survival assay in 96 well plates or 24 well plates, respectively and combination index (CI) analysis of drug-drug interactions determined by Chou-Talalay analysis as we have previously described. • 1) CCK-8 metabolic assay: Cells were plated (2500 cells/well) in 96-well plate and allowed to grow for at least 18 hours in at 37° C. in the presence of 5% CO2 before treatment with inhibitor for 48 hours. CCK-8 solution (Dojindo) was added to 10% of the total media volume and after 1-4 hours of incubation absorbance at 450 nm was determined using BioTek® Synergy™ H1 hybrid multi-mode microplate reader • 2) Clonogenic survival assay: Cells were plated in a 24 well (20,000 cells/well) plate, incubated for at least 18 hours and then treated with inhibitor. After 48 hours of treatment, the cells are re-plated in 10 cm dishes (500 cells/dish) and incubated for 8-10 days to allow colony formation. Plates are washed with PBS, fixed with glutaraldehyde and stained with crystal violet. Images of the stained colonies were captured with a Fuji LAS-3000 CCD system then counted using OpenCFU software. Viability is determined as a percent of vehicle controls and plotted versus drug concentration. • 3) Assessment of synergy via combination index (CI): In the combination index studies, cells (H460 or SKGT4) were treated with RPA inhibitor and Pt/etoposide/bleomycin/taxol/DDR inhibitor alone as well as the combination of both—the inhibitor and the DNA damaging chemotherapeutic agent/DDR inhibitor. The range of treatment was dependent on the IC50 of each inhibitor/drug. If the IC50 was X, then the cells were treated at a range of 0.04× to 5× concentration in a CCK-8 metabolic assay. The kill curves from both the single agent treatments as well as the combination treatment were used in a Chou-Talalay based method to determine the combination index (CI) at different fractions of cells affected.^40 A CI>1.0 indicates antagonism between the two agents, while a CI<1.0 indicates synergy.
Inhibiting RPA can act synergistically with DNA damaging therapeutics including cisplatin and etoposide (FIG. 4C). In these studies, we used the Chou-Talalay method, which provides a combination index (CI) that quantifies synergistic activity for each drug combination. […] The synergistic activity of compounds described herein with DNA damaging agents may be explained by RPA's role in the DNA damage response and signaling.

Row | DNA binding activity (displacement of SYBR-Green intercalator) [1] | IC50 [3] [µM] | cellular uptake (in words) (H460 NSCLC cells [4]) | IC50 [5] [µM] | solubility ([6]; aqueous buffer at pH 9.5, pH 9.5, aqueous buffer) [µM] | solubility ([6]; aqueous buffer, pH 4, citrate buffer) [µM] | solubility ([6]; aqueous buffer, pH 7, phosphate buffer) [µM] | SMILES | cellular anticancer activity compared to compound 9 (H460 NSCLC cells [2]) | synergy (combination index) with DNA damaging therapeutics cisplatin and etoposide (H460 NSCLC cells [7])
1 | No significant DNA binding activity | 11.7 ± 0.3 | increased uptake | 1.61 ± 0.04 | – | – | – | CCOc1ccc2cc(C3CC(c4ccc(-c5ccc(Cl)nc5)cc4)=NN3C(=O)CCCC(=O)O)c(Cl)nc2c1 (centres unmarked) [Compound 26, 5-(5-(2-Chloro-7-ethoxyquinolin-3-yl)-3-(4-(6-chloropyridin-3-yl)phenyl)-4,5-dihydro-1H-pyrazol-1-yl)-5-oxopentanoic acid] | increase in cellular anticancer activity | –
2 | – | – | relatively poor uptake | 15.3 ± 1.42 | 112.5 ± 0.74 (≈ 66.6 µg/mL) | 0.76 ± 0.35 (≈ 0.45 µg/mL) | 3.31 ± 0.36 (≈ 1.96 µg/mL) | CCOc1ccc2cc(C3CC(c4ccc(I)cc4)=NN3C(=O)CCCC(=O)O)c(Cl)nc2c1 (centres unmarked) [Compound 9, 5-(5-(2-Chloro-7-ethoxyquinolin-3-yl)-3-(4-iodophenyl)-4,5-dihydro-1H-pyrazol-1-yl)-5-oxopentanoic acid] | – | showed synergy but not as robust of activity as compound 8
